Measured values from ChEMBL document CHEMBL1799992, “Substituent effect on the preferred DNA binding mode and affinity of a homologous series of naphthalene diimides” (Bioorg Med Chem Lett, 2011).

Columns and labels:
[1] = system: Nucleic Acid; assay: Binding affinity to 20 mer AT-rich DNA in MES00 buffer at pH 6.3 by isothermal titration calorimetry; format: nucleic-acid assay
[2] = system: Nucleic Acid; assay: Binding affinity to calf thymus DNA assessed as high affinity binding constant in MES00 buffer at pH 6.3 by isothermal titration calorimetry; format: nucleic-acid assay; conditions: Bos taurus
[3] = system: Nucleic Acid; assay: Binding affinity to calf thymus DNA assessed as low affinity binding constant in MES00 buffer at pH 6.3 by isothermal titration calorimetry; format: nucleic-acid assay; conditions: Bos taurus
[4] = system: Nucleic Acid; assay: Displacement of ethidium bromide from calf thymus DNA assessed as fluorescence intensity per microL of compound at 7 x 10^-5 M after 3 mins; format: nucleic-acid assay; conditions: Bos taurus
[5] = system: Nucleic Acid; assay: Binding affinity to 20 mer GC-rich DNA in MES00 buffer at pH 6.3 by isothermal titration calorimetry; format: nucleic-acid assay
[6] = system: Nucleic Acid; assay: Selectivity ratio of binding constant K for AT-rich DNA to binding constant K for GC-rich DNA; format: nucleic-acid assay
[7] = target: T1, DNA topoisomerase 1 (Homo sapiens) (UniProt P11387); assay: Inhibition of human topoisomerase 1 assessed as minimum concentration required for complete re-supercoiling of pUC19 DNA after 1 hr using ethidium bromide staining by agarose gel electrophoresis
T1 sequence (whole entry): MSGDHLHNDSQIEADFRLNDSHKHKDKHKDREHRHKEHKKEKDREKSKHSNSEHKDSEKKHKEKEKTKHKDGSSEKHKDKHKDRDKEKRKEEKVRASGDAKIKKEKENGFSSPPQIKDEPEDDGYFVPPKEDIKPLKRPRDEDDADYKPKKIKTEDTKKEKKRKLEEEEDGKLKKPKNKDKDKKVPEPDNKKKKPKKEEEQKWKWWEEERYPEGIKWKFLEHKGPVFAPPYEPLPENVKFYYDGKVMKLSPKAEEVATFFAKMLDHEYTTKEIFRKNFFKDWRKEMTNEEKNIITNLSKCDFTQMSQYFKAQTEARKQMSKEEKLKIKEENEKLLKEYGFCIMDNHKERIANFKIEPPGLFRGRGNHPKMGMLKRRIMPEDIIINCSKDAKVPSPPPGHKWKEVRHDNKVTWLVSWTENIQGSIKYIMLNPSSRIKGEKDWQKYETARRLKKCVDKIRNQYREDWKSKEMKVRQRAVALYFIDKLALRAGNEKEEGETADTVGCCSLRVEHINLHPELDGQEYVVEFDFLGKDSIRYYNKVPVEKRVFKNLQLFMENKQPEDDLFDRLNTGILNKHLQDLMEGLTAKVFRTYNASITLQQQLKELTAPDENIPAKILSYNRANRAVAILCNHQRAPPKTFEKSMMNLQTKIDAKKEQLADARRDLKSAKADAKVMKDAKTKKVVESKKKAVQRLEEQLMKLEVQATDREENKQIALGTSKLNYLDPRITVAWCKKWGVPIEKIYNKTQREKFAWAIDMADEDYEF

[8] = system: Nucleic Acid; assay: Binding affinity to calf thymus DNA assessed in MES00 buffer at pH 6.3 by isothermal titration calorimetry; format: nucleic-acid assay; conditions: Bos taurus

SMILES	K [1]	K [2]	K [3]	Flu intensity [4]	K [5]	Ratio [6]	Activity [7]	K [8]
CCCC[N+](C)(CCCC)CN1C(=O)c2ccc3c4c(ccc(c24)C1=O)C(=O)N(C[N+](C)(CCCC)CCCC)C3=O	1.38 ×10⁶ /M	78 ×10⁶ /M	3.9 ×10⁶ /M	358	0.38 ×10⁶ /M	3.6	> 6.7 µM	–
CC[N+](C)(CC)CN1C(=O)c2ccc3c4c(ccc(c24)C1=O)C(=O)N(C[N+](C)(CC)CC)C3=O	0.85 ×10⁶ /M	31 ×10⁶ /M	3.6 ×10⁶ /M	–	0.37 ×10⁶ /M	2.3	5.5 µM	–
CCC[N+](C)(CCC)CN1C(=O)c2ccc3c4c(ccc(c24)C1=O)C(=O)N(C[N+](C)(CCC)CCC)C3=O	0.73 ×10⁶ /M	43 ×10⁶ /M	3 ×10⁶ /M	–	0.24 ×10⁶ /M	3	6.7 µM	–
C[N+](C)(C)CN1C(=O)c2ccc3c4c(ccc(c24)C1=O)C(=O)N(C[N+](C)(C)C)C3=O	1.11 ×10⁶ /M	–	–	400	1.17 ×10⁶ /M	–	3.5 µM	15 ×10⁶ /M
